The values that follow come from PMC7753147, “High-throughput determination of protein affinities using unmodified peptide libraries in nanomolar scale” (iScience, 2020).

The subject of one assay is gephE. The assay can be described thus: µSPOT peptide microarray binding assay with recombinant gephE.
Another assay relates to native geph. Briefly: µSPOT peptide microarray binding assay with native geph from mouse brain lysate.
The next assay deals with FL-geph. The assay can be described thus: µSPOT peptide microarray binding assay with full-length geph.
Setting [1] is: µSPOT full positional scan of GlyRβ 15-mer DLRSNDFSIVGSLPR, intensity normalised to wild-type sequence (= 1).
The mark [2] stands for this setting: µSPOT full positional scan of GlyRβ 15-mer DLRSNDFSIVGSLPR, native geph, intensity normalised to wild-type sequence (= 1).
Setting [3] is: µSPOT peptide microarray, GlyRβ full positional scan, recombinant gephE, intensity normalised to wild-type sequence DLRSNDFSIVGSLPR (=1).
Setting [4] is: µSPOT peptide microarray, GlyRβ full positional scan, native geph from mouse brain lysate, intensity normalised to wild-type sequence DLRSNDFSIVGSLPR (=1).
The mark [5] stands for this setting: µSPOT peptide microarray, GlyRβ full positional scan, intensity normalised to wild-type sequence DLRSNDFSIVGSLPR (=1).

Experimental for native geph: Preparation of Mouse Tissue Lysates
Whole mouse brains were obtained from C57BL/6J mice at >4 weeks of age and 80 immediately flash frozen in liquid N2. Tissue of mRFP-gephyrin knock-in animals of 1 year of age (provided by Christian Specht, IBENS, Paris) was processed the same way. Before lysis, whole mouse brains were weighted and cut into four pieces along the coronal and sagittal axis. For preparation of one lysate, two diagonally opposite pieces were transferred into a 1.5 mL reaction tube (Sarsted). Lysis was carried out on ice in 400 µL RIPA lysis buffer (150 mM 85 NaCl, 50 mM Tris-HCl (pH=8), 1% Nonident P-40 substitute, 0.5% DOC, 0.1% SDS (all v/v)), to which Ethylenediaminetetraacetic acid (5 mM end concentration) and 1 mini tablet of ROCHE complete protease inhibitor per 10 mL was added immediately before use, by hand crushing the brain material with a hand pestle in a 1.5 mL reaction tube. Lysis was completed by 1 min sonification on ice with a Sartorius Labsonic M Sonificator at 20% amplitude with 90 care to avoid heating the suspensions. Finally, Lysates were centrifuged for 15 min at 17,200×g and 4 °C. The SN was subsequently collected, transferred to a new 1.5 mL reaction tube, flash frozen in liquid N2 and stored at -80 °C until use.
95 µSPOT slides were blocked by incubation with 2.5 mL 2% (w/v) IGG free bovine serum

In the case of “DLRSNDFSIVGALPR [GlyRβ_Full_Positional_Scan_221]”, in the assay with gephE (setting [1]), the “gephE Binding Intensity [norm.]” value turned out to be 0.77 norm. For the same sequence, the “Native geph Binding Intensity [norm.]” value in the assay with native geph (setting [2]) is 0.99 norm. Besides, the “Fl-geph Binding Intensity [norm.]” value with FL-geph (setting [1]) is on record as 1.04 norm.
“DLRSNDFSIVYSLPR [GlyRβ_Full_Positional_Scan_209, GlyR β 414-428 variant G424Y]”: the “gephE Binding Intensity [norm.]” value with gephE (setting [3]) is reported as 0.41 norm. For the same sequence, the “Native geph Binding Intensity [norm.]” value in the assay on native geph (setting [4]) came out at 0.2 norm. In the assay on FL-geph (setting [5]), the “Fl-geph Binding Intensity [norm.]” value amounted to 0.48 norm.
Take “DLRSNDMSIVGSLPR [GlyRβ_Full_Positional_Scan_138, GlyR β 414-428 variant F420M]”: the “gephE Binding Intensity [norm.]” value with gephE (setting [3]) amounted to 0.43 norm. For the same sequence, the “Native geph Binding Intensity [norm.]” value in the assay with native geph (setting [4]) is given as 0.32 norm. Also, in the assay with FL-geph (setting [5]), the “Fl-geph Binding Intensity [norm.]” value is given as 0.51 norm.
“DLRSNDFSIVGPLPR [GlyRβ_Full_Positional_Scan_225]”: in the assay with gephE (setting [1]), the “gephE Binding Intensity [norm.]” value was determined as 0.51 norm. In addition, the “Native geph Binding Intensity [norm.]” value in the assay with native geph (setting [2]) turned out to be 0.25 norm. For the same sequence, in the assay with FL-geph (setting [1]), the “Fl-geph Binding Intensity [norm.]” value came to 0.7 norm.
Taken in the same sequence, the figures for “DLRSNDFSIVTSLPR [GlyRβ_Full_Positional_Scan_216, GlyR β 414-428 variant G424T]” were 0.49 norm, 0.28 norm and 0.47 norm.
As for “DLRSNDFVIVGSLPR [GlyRβ_Full_Positional_Scan_146, GlyR β 414-428 variant S421V]”, the “gephE Binding Intensity [norm.]” value in the assay with gephE (setting [3]) is 0.56 norm. Moreover, the “Native geph Binding Intensity [norm.]” value in the assay with native geph (setting [4]) amounted to 0.23 norm. Also, the “Fl-geph Binding Intensity [norm.]” value in the assay on FL-geph (setting [5]) was found to be 0.61 norm.
For “DLRSNDFSIVGSLCR [GlyRβ_Full_Positional_Scan_277]”, the “gephE Binding Intensity [norm.]” value in the assay on gephE (setting [1]) is 0.62 norm. Besides, the “Native geph Binding Intensity [norm.]” value in the assay on native geph (setting [2]) amounted to 0.36 norm. Moreover, the “Fl-geph Binding Intensity [norm.]” value in the assay with FL-geph (setting [1]) stood at 0.67 norm.
On to “DPRSNDFSIVGSLPR [GlyRβ_Full_Positional_Scan_025]”, for which, in the assay with gephE (setting [3]), the “gephE Binding Intensity [norm.]” value is given as 1.01 norm. Moreover, the “Native geph Binding Intensity [norm.]” value in the assay on native geph (setting [4]) is listed as 1.02 norm. The “Fl-geph Binding Intensity [norm.]” value in the assay with FL-geph (setting [5]) came to 1.01 norm.
On to “DLRSNDFSIVQSLPR [GlyRβ_Full_Positional_Scan_220, GlyR β 414-428 variant G424Q]”, for which, in the assay on gephE (setting [1]), the “gephE Binding Intensity [norm.]” value was determined as 0.43 norm. Further, the “Native geph Binding Intensity [norm.]” value in the assay on native geph (setting [2]) is recorded as 0.29 norm. Moreover, in the assay on FL-geph (setting [1]), the “Fl-geph Binding Intensity [norm.]” value was 0.45 norm.
As for “DLRSNDFSFVGSLPR [GlyRβ_Full_Positional_Scan_167, GlyR β 414-428 variant I422F]”, in the assay on gephE (setting [3]), the “gephE Binding Intensity [norm.]” value is given as 0.51 norm. Further, in the assay with native geph (setting [4]), the “Native geph Binding Intensity [norm.]” value came to 0.27 norm. Besides, in the assay on FL-geph (setting [5]), the “Fl-geph Binding Intensity [norm.]” value stood at 0.76 norm.
On the same counts, the results for “DLRSIDFSIVGSLPR [GlyRβ_Full_Positional_Scan_083]” are 0.92 norm, 0.55 norm and 0.81 norm.
Regarding “DLRSNDFSIVGSLQR [GlyRβ_Full_Positional_Scan_280]”, the “gephE Binding Intensity [norm.]” value in the assay with gephE (setting [1]) amounted to 0.53 norm. The “Native geph Binding Intensity [norm.]” value with native geph (setting [2]) turned out to be 0.41 norm. In addition, the “Fl-geph Binding Intensity [norm.]” value in the assay with FL-geph (setting [1]) turned out to be 0.77 norm.
As to “DLRSNDFSIQGSLPR [GlyRβ_Full_Positional_Scan_200, GlyR β 414-428 variant V423Q]”, in the assay with gephE (setting [3]), the “gephE Binding Intensity [norm.]” value was 0.7 norm. Besides, the “Native geph Binding Intensity [norm.]” value with native geph (setting [4]) was 0.41 norm. For the same sequence, the “Fl-geph Binding Intensity [norm.]” value in the assay on FL-geph (setting [5]) is on record as 1.03 norm.
Taken in the same sequence, the figures for “DLRSNDGSIVGSLPR [GlyRβ_Full_Positional_Scan_122, GlyR β 414-428 variant F420G]” were 0.49 norm, 0.37 norm and 0.55 norm.
On the same counts, the results for “DLLSNDFSIVGSLPR [GlyRβ_Full_Positional_Scan_044]” are 0.95 norm, 1.48 norm and 1.28 norm.
